Laboratory results from patent US20250295648A1 (priority 2024, published 2025).
Several values for one entry are separate records, joined by “and”; a condition that tells them apart may be missing. Equal values may be shown once.

Columns and labels:
[1] = system: L-DOPA-induced dyskinesia in rat; conditions: 2-week treatment period; cited from earlier work
[2] = system: PD patients with LID; test: King's Parkinson's Disease Pain Scale (KPPS); format: in vivo, human; conditions: for KPPS, mean change from baseline: per-protocol set, p < 0.01 vs baseline
Text: The KPPS is a rater-interview-based scale conducted with the patient and caregiver (if available). It is a 14-item scale covering 7 domains of pain: • z. Musculoskeletal pain • aa. Chronic pain • bb. Fluctuation-related pain • cc. Nocturnal pain • dd. Orofacial pain • ee. Edema/swelling; discoloration • ff. Radicular pain Each item is scored by severity (0-3; none to very severe) multiplied by frequency (0-4; never to all the time), for an item sub score of 0-12, resulting in a total score from 0 to 168. Ratings are based on the previous month, or in the case of this study, the intervening period since the previous clinic visit (about 3 weeks). Treatment effects would be analyzed as change from baseline for total score and for individual pain domains.

[3] = system: striatal 5-HT release; conditions: rat, in vivo; cited from earlier work
[4] = system: PD patients with LID; test: Parkinson's Disease Questionnaire (PDQ39); format: in vivo, human; conditions: for PDQ39, mean change from baseline: per-protocol set
Text: The PDQ39-item patient reported outcome of health status and quality of life and is the most frequently used disease-specific health status measure for PD. The questionnaire assesses how often people affected by PD experience difficulties across 8 dimensions of daily living. The standard PDQ39 assesses quality of life over the previous month. In this study the initial time period assessed at the Baseline Visit would be the previous month, with subsequent assessments for the intervening period since the last clinic visit (about 3 weeks). The 8 quality of life dimensions covered in the questionnaire are: • gg. Mobility (10 items #1-10) • hh. ADL (6 items #11-16) • ii. Emotional Well Being (6 items #17-22) • jj. Stigma (4 items #23-26) • kk. Social Support (3 items #27-29) • ll. Cognition (4 items #30-33) • mm. Communications (3 items #34-36) • nn. Bodily Discomfort (3 items #37-39) Individual items are rated by the patient on a scale of […]. Dimension scores are calculated on a scale of 0 to 100. The total score and individual dimension scores would be assessed for change from baseline.

[5] = system: Parkinson's disease symptoms in PD patients with LID; test: Unified Parkinson's Disease Rating Scale (UPDRS); conditions: for UPDRS Part 3 score (motor disability), change from baseline: p=0.0072 vs baseline
Experimental: Patients were rated for dyskinesia at baseline and on days 28 (at end of up-titration period) and 42 (end of stable dosing period). Because the level of dyskinesia experienced by patients can vary over time, they were given 150% (i.e., 1.5×) of their regular L-DOPA dose (up to a maximum of 250 mg) as a challenge 30 min before each dyskinesia assessment to improve comparability between patients and between visits. Patients were filmed 30, 60 and 90 min after dosing with L-DOPA (˜5 min of filming each time). LID was assessed using the Unified Dyskinesia Rating Scale (UDysRS). Changes from baseline are shown for total score (i.e., Parts 1 to 4), for total objective score (i.e., Parts 3+4), and for the sum of Part 3 objective impairment assessment scores. Because objective LID assessment was carried out at 3 time-points (30, 60 and 90 min) following L-DOPA challenge, the above parameters were analyzed based on the most severe of the three scores as well as on the average score of the 3 time points. PD symptoms were assessed by Unified Parkinson's Disease Rating Scale (UPDRS) 30-90 min after the 150% L-DOPA challenge (i.e., when the patient was ON). Changes from baseline are shown for total score (i.e., Parts 1 to 4) and individual scores for each Part, 1, 2, 3 and 4.
The UPDRS consists of 4 parts: • v. Part I assesses non-motor experiences of daily living, such as cognitive impairment and depressed mood. • w. Part II assesses motor experiences of daily living, such as speech and eating tasks. • x. Part III is a motor examination conducted by the clinician, including assessments of symptoms such as rigidity and tremor. • y. Part IV is an assessment of motor complications, such as time spent with dyskinesia and functional impact of dyskinesias.
Each item in the UPDRS is scored from 0 to 4, and the individual scores are summed to give a total score that indicates the severity of the disease, with a score of 0 indicating no disability and a score of 199 being the most severe (indicating total disability).
Change from baseline in UPDRS combined scores (Parts I, II, III and IV) to Visit 6 (Day 28) and Visit 7 (Day 42) respectively would be summarized using descriptive statistics. […] The same analysis would be done for UPDRS Part III only.
The baseline value of the dependent variable has been included in the model as a continuous covariate. Kenward-Roger's improved approximation for degrees of freedom (2009) has been used; ^b)=p-value for the difference between NLX-112 at the assessment timepoint and at baseline; ^c)=p-value for the difference between placebo at the assessment timepoint and at baseline; ^d)=p-value for the difference between NLX-112 and placebo absolute change from baseline at the assessment timepoint.

[6] = system: 6-OH-DA lesioned rats; conditions: rat, in vivo; cited from earlier work
[7] = per-protocol set (n = 15), Baseline
[8] = 5 patients co-treated with amantadine
[9] = Full analysis set, Visit 2 Baseline
[10] = Full analysis set, Visit 6 Clinic Efficacy Visit
[11] = Full analysis set, Visit 7 Clinic Efficacy Visit
[12] = Full analysis set, Visit 9 Follow-up Clinic Visit
[13] = Visit 2 Baseline, per protocol analysis set, N = 15
[14] = Visit 6 Clinic Efficacy Visit (Day 28), per protocol analysis set, N = 15
[15] = Visit 7 Clinic Efficacy Visit (Day 42), per protocol analysis set, N = 15
[16] = Visit 9 Follow-up Clinic Visit, per protocol analysis set, N = 15
[17] = individual patients A-E co-treated with amantadine
[18] = per-protocol set, Δ D 28 (end of up-titration), p < 0.05 vs baseline
[19] = per-protocol set, Δ D 42 (end of stable dosing)
[20] = per-protocol set, Δ D 42 (end of stable dosing), p < 0.01 vs baseline

## Cc1ccc(CNCC2(F)CCN(C(=O)c3ccc(F)c(Cl)c3)CC2)nc1 [NLX-112, (3-chloro-4-fluoro-phenyl)-[4-fluoro-4-{[(5-methyl-pyridin-2-ylmethyl)-amino]-methyl}piperidin-1-yl]methanone]
[1]
  antidyskinetic efficacy against L-DOPA-induced dyskinesia: did maintain its antidyskinetic efficacy
[2]; Day 42, also seen with placebo
  KPPS total score (reported pain), change from baseline: statistically significant improvement
[2]; [7]
  KPPS, mean: 16.0
[2]; Δ D 28 (end of up-titration)
  KPPS, mean change from baseline: −4.6
[2]; Δ D 42 (end of stable dosing)
  KPPS, mean change from baseline: −4.8
[3]
  striatal 5-HT release and dopamine surge following L-DOPA: inhibited striatal 5-HT release and blunted the ‘dopamine surge’
[4]; Days 28 or 42
  quality of life (PDQ39 score): no consistent statistically significant effect
[4]; [7]
  PDQ39, mean: 18.7
[4]; Δ D 28 (end of up-titration)
  PDQ39, mean change from baseline: −1.5
[4]; Δ D 42 (end of stable dosing)
  PDQ39, mean change from baseline: −0.6
[5]; [8]
  UPDRS Part 3, mean change from baseline: −4.2
  UPDRS Total, mean change from baseline: −6.6
[5]; Day 28
  UPDRS Part 2 (motor experiences of daily living), vs baseline: statistically significant reduction
[5]; Day 28, PPS, p=0.0005 vs baseline
  UPDRS total score (Parts 1-4), change from baseline: −6.5 points
[5]; Day 28, PPS
  UPDRS Part 3 score (motor disability), change from baseline: −3.7 points
[5]; Day 42, PPS, p=0.0021 vs baseline
  UPDRS total score (Parts 1-4), change from baseline: −5.7 points
[5]; Day 42, PPS
  UPDRS Part 3 score (motor disability), change from baseline: −3.7 points
[5]; Days 28 or 42
  UPDRS total score absolute change from baseline, NLX-112 vs placebo: no significant differences
[5]; [9]
  UPDRS Part 3 Motor Total, collected value, mean: 17.8
  UPDRS Part 3 Motor Total, collected value, median: 16.0
  UPDRS Total Score (all Parts), collected value, Mean: 38.3
  UPDRS Total Score (all Parts), collected value, Median: 37.5
[5]; [10]
  UPDRS Part 3 Motor Total, absolute change from baseline, mean: −3.7
  UPDRS Part 3 Motor Total, absolute change from baseline, median: −4.0
  UPDRS Part 3 Motor Total, collected value, mean: 13.9
  UPDRS Part 3 Motor Total, collected value, median: 14.0
  UPDRS Part 3 Motor Total, relative change from baseline (%), mean: −21.8%
  UPDRS Part 3 Motor Total, relative change from baseline (%), median: −21.4%
  UPDRS Total Score (all Parts), absolute change from baseline, Mean: −6.5
  UPDRS Total Score (all Parts), absolute change from baseline, Median: −5.0
  UPDRS Total Score (all Parts), collected value, Mean: 30.5
  UPDRS Total Score (all Parts), collected value, Median: 29.0
  UPDRS Total Score (all Parts), relative change from baseline (%), Mean: −17.4%
  UPDRS Total Score (all Parts), relative change from baseline (%), Median: −15.2%
[5]; [11]
  UPDRS Part 3 Motor Total, absolute change from baseline, mean: −3.7
  UPDRS Part 3 Motor Total, absolute change from baseline, median: −4.0
  UPDRS Part 3 Motor Total, collected value, mean: 13.9
  UPDRS Part 3 Motor Total, collected value, median: 14.0
  UPDRS Part 3 Motor Total, relative change from baseline (%), mean: −21.5%
  UPDRS Part 3 Motor Total, relative change from baseline (%), median: −33.3%
  UPDRS Total Score (all Parts), absolute change from baseline, Mean: −5.7
  UPDRS Total Score (all Parts), absolute change from baseline, Median: −5.0
  UPDRS Total Score (all Parts), collected value, Mean: 31.3
  UPDRS Total Score (all Parts), collected value, Median: 30.0
  UPDRS Total Score (all Parts), relative change from baseline (%), Mean: −15.7%
  UPDRS Total Score (all Parts), relative change from baseline (%), Median: −19.2%
[5]; [12]
  UPDRS Part 3 Motor Total, absolute change from baseline, mean: −2.7
  UPDRS Part 3 Motor Total, absolute change from baseline, median: −2.0
  UPDRS Part 3 Motor Total, collected value, mean: 14.8
  UPDRS Part 3 Motor Total, collected value, median: 13.0
  UPDRS Part 3 Motor Total, relative change from baseline (%), mean: −11.2%
  UPDRS Part 3 Motor Total, relative change from baseline (%), median: −14.3%
  UPDRS Total Score (all Parts), absolute change from baseline, Mean: −4.4
  UPDRS Total Score (all Parts), absolute change from baseline, Median: −3.0
  UPDRS Total Score (all Parts), collected value, Mean: 32.6
  UPDRS Total Score (all Parts), collected value, Median: 31.0
  UPDRS Total Score (all Parts), relative change from baseline (%), Mean: −9.57%
  UPDRS Total Score (all Parts), relative change from baseline (%), Median: −11.5%
[5]; [13]
  UPDRS Part 3 Motor Total, collected value, mean: 17.5
  UPDRS Part 3 Motor Total, collected value, median: 17.0
  UPDRS Total Score, collected value, mean: 37.0
  UPDRS Total Score, collected value, median: 36.0
[5]; [14]
  UPDRS Part 3 Motor Total, absolute change from baseline, mean: −3.7
  UPDRS Part 3 Motor Total, absolute change from baseline, median: −4.0
  UPDRS Part 3 Motor Total, collected value, mean: 13.9
  UPDRS Part 3 Motor Total, collected value, median: 14.0
  UPDRS Part 3 Motor Total, relative change from baseline (%), mean: −21.8%
  UPDRS Part 3 Motor Total, relative change from baseline (%), median: −21.4%
  UPDRS Total Score, absolute change from baseline, mean: −6.5
  UPDRS Total Score, absolute change from baseline, median: −5.0
  UPDRS Total Score, collected value, mean: 30.5
  UPDRS Total Score, collected value, median: 29.0
  UPDRS Total Score, relative change from baseline (%), mean: −17.4%
  UPDRS Total Score, relative change from baseline (%), median: −15.2%
[5]; [15]
  UPDRS Part 3 Motor Total, absolute change from baseline, mean: −3.7
  UPDRS Part 3 Motor Total, absolute change from baseline, median: −4.0
  UPDRS Part 3 Motor Total, collected value, mean: 13.9
  UPDRS Part 3 Motor Total, collected value, median: 14.0
  UPDRS Part 3 Motor Total, relative change from baseline (%), mean: −21.5%
  UPDRS Part 3 Motor Total, relative change from baseline (%), median: −33.3%
  UPDRS Total Score, absolute change from baseline, mean: −5.7
  UPDRS Total Score, absolute change from baseline, median: −5.0
  UPDRS Total Score, collected value, mean: 31.3
  UPDRS Total Score, collected value, median: 30.0
  UPDRS Total Score, relative change from baseline (%), mean: −15.7%
  UPDRS Total Score, relative change from baseline (%), median: −19.2%
[5]; [16]
  UPDRS Part 3 Motor Total, absolute change from baseline, mean: −2.7
  UPDRS Part 3 Motor Total, absolute change from baseline, median: −2.0
  UPDRS Part 3 Motor Total, collected value, mean: 14.8
  UPDRS Part 3 Motor Total, collected value, median: 13.0
  UPDRS Part 3 Motor Total, relative change from baseline (%), mean: −11.2%
  UPDRS Part 3 Motor Total, relative change from baseline (%), median: −14.3%
  UPDRS Total Score, absolute change from baseline, mean: −4.4
  UPDRS Total Score, absolute change from baseline, median: −3.0
  UPDRS Total Score, collected value, mean: 32.6
  UPDRS Total Score, collected value, median: 31.0
  UPDRS Total Score, relative change from baseline (%), mean: −9.57%
  UPDRS Total Score, relative change from baseline (%), median: −11.5%
[5]; day 42
  reduction in UPDRS Part 3 score, more than placebo: 3.9 points
[5]; days 28 and 42
  UPDRS Part 1 (non-motor experiences of daily living), vs baseline: no statistically significant changes from baseline
  UPDRS Part IV (motor complications), vs baseline: significant reduction
[5]; [17]
  UPDRS Part 3, Δ from baseline: −9 and −13 and +3 and +2 and −4
  UPDRS Total, Δ from baseline: −15 and −11 and −5 (2×) and +3
[5]; of the 5 patients
  patients on NLX-112 and amantadine with numerical reductions in PD symptoms (UPDRS): 4
[5]; [7]
  UPDRS Part 1, mean: 1.0
  UPDRS Part 2, mean: 10.7
  UPDRS Part 3, mean: 17.5
  UPDRS Part 4, mean: 8.0
  UPDRS Total (Parts 1 to 4), mean: 37.0
[5]; per-protocol set, Δ D 28 (end of up-titration)
  UPDRS Part 1, mean change from baseline: 0.2
[5]; per-protocol set, Δ D 28 (end of up-titration), p < 0.001 vs baseline
  UPDRS Total (Parts 1 to 4), mean change from baseline: −6.5
[5]; per-protocol set, Δ D 28 (end of up-titration), p < 0.01 vs baseline, p < 0.05 vs placebo
  UPDRS Part 3, mean change from baseline: −3.7
[5]; [18]
  UPDRS Part 2, mean change from baseline: −2.1
  UPDRS Part 4, mean change from baseline: −0.9
[5]; [19]
  UPDRS Part 1, mean change from baseline: 0.1
  UPDRS Part 2, mean change from baseline: −1.2
[5]; [20]
  UPDRS Part 3, mean change from baseline: −3.7
  UPDRS Total (Parts 1 to 4), mean change from baseline: −5.7
[5]; per-protocol set, Δ D 42 (end of stable dosing), p < 0.05 vs baseline
  UPDRS Part 4, mean change from baseline: −0.9
[6]
  rotation behavior: increases rotation behavior
